From the OligoGym collection
Oligonucleotides are written 5' to 3', each unit as a sugar letter and its base; * is a phosphorothioate linkage, no mark a phosphodiester; rarer units and linkages stand in square brackets, end groups in braces. Plain capitals give the bases only. d = 2'-deoxy (DNA); r = 2'-OH (RNA)

Each substance was assayed against P2RX3 (assay: reporter assay of Huesken 2005). Conditions: siRNA.
Also: test concentration or dose not given here.

Going from “sense rArUrUrGrUrUrArCrUrGrArArArArUrCrArGrAdTdT / antisense rUrCrUrGrArUrUrUrUrCrArGrUrArArCrArArUdCdA” to “sense rCrUrUrUrArCrUrUrCrUrGrUrGrGrGrArGrUrGdTdT / antisense rCrArCrUrCrCrCrArCrArGrArArGrUrArArArGdGdC”, the normalised inhibition (eCFP-eYFP dual reporter) falls from 74.6% to 67.7%.

First: sense rUrCrGrGrUrCrUrUrUrGrUrCrArUrCrArUrCrAdTdT / antisense rUrGrArUrGrArUrGrArCrArArArGrArCrCrGrAdGdG
Second: sense rUrGrGrUrGrCrCrCrCrArCrGrGrArGrGrUrGrGdTdT / antisense rCrCrArCrCrUrCrCrGrUrGrGrGrGrCrArCrCrAdGdC
The normalised inhibition (eCFP-eYFP dual reporter) of the first is higher: 72.8% for the first, 13.5% for the second.

With “sense rArUrCrGrGrGrArUrCrArUrCrArArCrCrGrArGdTdT / antisense rCrUrCrGrGrUrUrGrArUrGrArUrCrCrCrGrArUdGdG” the normalised inhibition (eCFP-eYFP dual reporter) was 39.3%.

What follows are substances tested against DENND5A (assay: reporter assay of Huesken 2005). Conditions: siRNA.

Compared with “sense rArCrGrArGrCrUrGrUrCrGrGrCrArUrUrArUrGdTdT / antisense rCrArUrArArUrGrCrCrGrArCrArGrCrUrCrGrUdCdC”, “sense rArArCrCrUrArUrUrArUrGrArGrArCrArUrUrAdTdT / antisense rUrArArUrGrUrCrUrCrArUrArArUrArGrGrUrUdTdG” is higher in normalised inhibition (eCFP-eYFP dual reporter): 54.1% for the first, 66.3% for the second.

Compared with “sense rCrUrCrArArGrArUrUrCrCrUrGrGrArGrArCrCdTdT / antisense rGrGrUrCrUrCrCrArGrGrArArUrCrUrUrGrArGdAdG”, “sense rCrUrArUrCrArCrCrUrCrCrUrGrUrCrUrUrUrCdTdT / antisense rGrArArArGrArCrArGrGrArGrGrUrGrArUrArGdAdG” is lower in normalised inhibition (eCFP-eYFP dual reporter): 64.6% for the first, 63.1% for the second.

First: sense rUrCrArCrUrGrCrCrArArCrCrCrArUrGrGrArUdTdT / antisense rArUrCrCrArUrGrGrGrUrUrGrGrCrArGrUrGrAdAdC
Second: sense rArArArUrCrArGrCrCrUrUrArUrGrGrUrCrCrCdTdT / antisense rGrGrGrArCrCrArUrArArGrGrCrUrGrArUrUrUdCdC
The normalised inhibition (eCFP-eYFP dual reporter) of the first is higher: 57.8% for the first, 41.9% for the second.

Compared with “sense rUrGrArArGrArGrGrUrGrArCrUrArGrCrArArGdTdT / antisense rCrUrUrGrCrUrArGrUrCrArCrCrUrCrUrUrCrAdTdA”, “sense rCrUrUrGrCrCrArCrArGrUrUrCrCrCrCrArArCdTdT / antisense rGrUrUrGrGrGrGrArArCrUrGrUrGrGrCrArArGdTdC” is lower in normalised inhibition (eCFP-eYFP dual reporter): 68.6% for the first, 50.6% for the second.

First: sense rCrUrUrUrGrUrGrArUrCrUrCrCrUrGrGrArArAdTdT / antisense rUrUrUrCrCrArGrGrArGrArUrCrArCrArArArGdGdC
Second: sense rCrCrArGrCrCrUrUrUrGrUrGrArUrCrUrCrCrUdTdT / antisense rArGrGrArGrArUrCrArCrArArArGrGrCrUrGrGdCdA
The normalised inhibition (eCFP-eYFP dual reporter) of the first is higher: 65.8% for the first, 47.1% for the second.

First: sense rGrArCrCrCrArGrArUrGrUrUrUrGrCrArUrCrUdTdT / antisense rArGrArUrGrCrArArArCrArUrCrUrGrGrGrUrCdTdC
Second: sense rArArCrArGrGrGrArGrCrArArArUrGrCrArArAdTdT / antisense rUrUrUrGrCrArUrUrUrGrCrUrCrCrCrUrGrUrUdGdG
The normalised inhibition (eCFP-eYFP dual reporter) of the first is higher: 71.9% for the first, 49.2% for the second.

First: sense rCrUrCrUrArCrGrUrCrUrCrUrArArGrUrGrCrAdTdT / antisense rUrGrCrArCrUrUrArGrArGrArCrGrUrArGrArGdAdG
Second: sense rUrGrCrCrCrGrGrCrUrGrCrArArGrCrCrUrUrGdTdT / antisense rCrArArGrGrCrUrUrGrCrArGrCrCrGrGrGrCrAdAdT
The normalised inhibition (eCFP-eYFP dual reporter) of the first is higher: 68.3% for the first, 56.4% for the second.

Compared with “sense rUrCrUrUrUrCrArArUrGrCrCrGrUrCrGrArUrUdTdT / antisense rArArUrCrGrArCrGrGrCrArUrUrGrArArArGrAdCdA”, “sense rCrArArGrArUrCrArGrGrCrUrGrUrUrGrArArUdTdT / antisense rArUrUrCrArArCrArGrCrCrUrGrArUrCrUrUrGdTdC” is higher in normalised inhibition (eCFP-eYFP dual reporter): 52.7% for the first, 55.7% for the second.

First: sense rArCrArUrGrArArGrArUrUrGrGrArCrArArGrGdTdT / antisense rCrCrUrUrGrUrCrCrArArUrCrUrUrCrArUrGrUdCdA
Second: sense rArCrCrCrCrArGrCrArGrCrArArUrArArGrGrAdTdT / antisense rUrCrCrUrUrArUrUrGrCrUrGrCrUrGrGrGrGrUdCdT
The normalised inhibition (eCFP-eYFP dual reporter) of the first is higher: 70.5% for the first, 64.9% for the second.

First: sense rArUrUrGrArCrArArCrCrArCrUrUrCrArUrUrGdTdT / antisense rCrArArUrGrArArGrUrGrGrUrUrGrUrCrArArUdGdT
Second: sense rCrArGrGrArUrArUrGrArGrGrCrArCrArUrCrCdTdT / antisense rGrGrArUrGrUrGrCrCrUrCrArUrArUrCrCrUrGdAdA
The normalised inhibition (eCFP-eYFP dual reporter) of the first is higher: 48.7% for the first, 46.7% for the second.

First: sense rCrUrGrUrCrGrGrCrArUrUrArUrGrCrCrArGrUdTdT / antisense rArCrUrGrGrCrArUrArArUrGrCrCrGrArCrArGdCdT
Second: sense rUrCrUrGrArUrGrUrArCrUrUrUrCrCrArCrUrGdTdT / antisense rCrArGrUrGrGrArArArGrUrArCrArUrCrArGrAdCdT
The normalised inhibition (eCFP-eYFP dual reporter) of the first is higher: 73% for the first, 47.9% for the second.

Compared with “sense rUrGrCrArArArArCrUrUrUrGrArUrArArArGrCdTdT / antisense rGrCrUrUrUrArUrCrArArArGrUrUrUrUrGrCrAdTdT”, “sense rCrUrCrCrUrGrUrGrArCrCrArArArCrUrGrCrAdTdT / antisense rUrGrCrArGrUrUrUrGrGrUrCrArCrArGrGrArGdTdG” is higher in normalised inhibition (eCFP-eYFP dual reporter): 46% for the first, 80.5% for the second.

Compared with “sense rUrGrCrArGrGrArGrUrUrCrArArCrArUrCrArCdTdT / antisense rGrUrGrArUrGrUrUrGrArArCrUrCrCrUrGrCrAdAdT”, “sense rCrCrArGrArGrGrGrArGrArArGrUrArCrArUrCdTdT / antisense rGrArUrGrUrArCrUrUrCrUrCrCrCrUrCrUrGrGdTdC” is lower in normalised inhibition (eCFP-eYFP dual reporter): 62.5% for the first, 34.5% for the second.

Compared with “sense rArGrArArGrArArCrUrCrArGrGrArUrUrUrArCdTdT / antisense rGrUrArArArUrCrCrUrGrArGrUrUrCrUrUrCrUdTdC”, “sense rGrArGrGrUrGrGrArUrGrArGrArGrGrCrCrArUdTdT / antisense rArUrGrGrCrCrUrCrUrCrArUrCrCrArCrCrUrCdAdG” is higher in normalised inhibition (eCFP-eYFP dual reporter): 44.7% for the first, 74.4% for the second.

Compared with “sense rArGrUrUrGrCrCrArGrArGrGrArCrUrUrGrCrCdTdT / antisense rGrGrCrArArGrUrCrCrUrCrUrGrGrCrArArCrUdCdA”, “sense rArGrGrArCrArArCrCrGrGrCrArGrArGrArArAdTdT / antisense rUrUrUrCrUrCrUrGrCrCrGrGrUrUrGrUrCrCrUdGdA” is lower in normalised inhibition (eCFP-eYFP dual reporter): 71.7% for the first, 67% for the second.

Compared with “sense rGrUrGrCrCrArGrArArCrUrUrGrGrGrGrArArGdTdT / antisense rCrUrUrCrCrCrCrArArGrUrUrCrUrGrGrCrArCdTdC”, “sense rCrUrGrUrCrUrUrUrCrArArUrGrCrCrGrUrCrGdTdT / antisense rCrGrArCrGrGrCrArUrUrGrArArArGrArCrArGdGdA” is higher in normalised inhibition (eCFP-eYFP dual reporter): 41.9% for the first, 47.4% for the second.

Going from “sense rCrUrUrCrUrArArArGrCrCrArGrGrGrArUrGrGdTdT / antisense rCrCrArUrCrCrCrUrGrGrCrUrUrUrArGrArArGdCdC” to “sense rGrGrCrUrGrGrCrArUrUrCrArArGrArCrCrCrAdTdT / antisense rUrGrGrGrUrCrUrUrGrArArUrGrCrCrArGrCrCdCdT”, the normalised inhibition (eCFP-eYFP dual reporter) rises from 46.4% to 75.8%.

Compared with “sense rArCrCrUrGrCrCrCrUrUrCrCrUrCrUrCrArArGdTdT / antisense rCrUrUrGrArGrArGrGrArArGrGrGrCrArGrGrUdAdG”, “sense rArGrGrGrArUrGrGrUrGrCrCrArGrCrCrCrUrUdTdT / antisense rArArGrGrGrCrUrGrGrCrArCrCrArUrCrCrCrUdGdG” is higher in normalised inhibition (eCFP-eYFP dual reporter): 53.2% for the first, 83.7% for the second.

Going from “sense rCrUrCrArArGrArGrGrCrUrArArCrCrUrCrUrGdTdT / antisense rCrArGrArGrGrUrUrArGrCrCrUrCrUrUrGrArGdGdC” to “sense rUrGrGrGrGrUrCrUrArUrGrGrGrCrCrArArUrAdTdT / antisense rUrArUrUrGrGrCrCrCrArUrArGrArCrCrCrCrAdGdA”, the normalised inhibition (eCFP-eYFP dual reporter) rises from 52.3% to 66.7%.

Compared with “sense rUrUrGrArCrCrArArGrArUrGrCrArGrUrArGrGdTdT / antisense rCrCrUrArCrUrGrCrArUrCrUrUrGrGrUrCrArAdAdG”, “sense rUrUrUrCrArCrUrCrArGrArUrGrUrUrUrGrCrAdTdT / antisense rUrGrCrArArArCrArUrCrUrGrArGrUrGrArArAdCdG” is lower in normalised inhibition (eCFP-eYFP dual reporter): 57.9% for the first, 42.4% for the second.

Compared with “sense rGrGrArCrUrGrGrArCrArCrGrGrArGrArCrCrGdTdT / antisense rCrGrGrUrCrUrCrCrGrUrGrUrCrCrArGrUrCrCdGdC”, “sense rGrCrArArUrArArGrGrArUrCrUrCrArArArGrUdTdT / antisense rArCrUrUrUrGrArGrArUrCrCrUrUrArUrUrGrCdTdG” is higher in normalised inhibition (eCFP-eYFP dual reporter): 60.4% for the first, 66.2% for the second.

Compared with “sense rUrCrArGrUrGrUrGrArUrGrArArGrArArGrArAdTdT / antisense rUrUrCrUrUrCrUrUrCrArUrCrArCrArCrUrGrAdAdC”, “sense rArUrUrCrCrUrArCrGrArGrCrUrUrCrUrUrArAdTdT / antisense rUrUrArArGrArArGrCrUrCrGrUrArGrGrArArUdGdC” is lower in normalised inhibition (eCFP-eYFP dual reporter): 75.2% for the first, 65.4% for the second.

Going from “sense rGrArUrGrArGrArGrGrCrCrArUrGrCrCrGrGrAdTdT / antisense rUrCrCrGrGrCrArUrGrGrCrCrUrCrUrCrArUrCdCdA” to “sense rGrArUrCrCrUrArGrUrUrGrGrGrGrArGrCrUrGdTdT / antisense rCrArGrCrUrCrCrCrCrArArCrUrArGrGrArUrCdCdG”, the normalised inhibition (eCFP-eYFP dual reporter) rises from 63% to 66.6%.

“sense rUrUrCrCrUrArCrGrArGrCrUrUrCrUrUrArArGdTdT / antisense rCrUrUrArArGrArArGrCrUrCrGrUrArGrGrArAdTdG” showed a normalised inhibition (eCFP-eYFP dual reporter) of 59.8%.
